For one assay, the system named is pepsin secretion. Nature of the assay: inhibition of pepsin secretion in dogs with gastric fistula and Heidenhain pouch. The following applies: for effect on pepsin secretion: gastric fistula. The format is in vivo, dog (beagle). The method, then: (§1) In brief, six beagle dogs were surgically prepared with Heidenhain pouches and gastric fistula. The dogs were fasted for 18 hours before the experiment. […] Collections of gastric secretions were recovered at 10 minute intervals. Each dog received an intravenous infusion throughout the experiment consisting of 150 mM NaCl and 8 mM KCl at 2 ml.min^-1. Secretory stimulants and the synthetic peptides were added to this infusion at appropriate rates. The stimulants of gastric secretion used were pentagastrin and histamine phosphate. Pentagastrin (0.5 μg.Kg^-1.h^-1) was given for 1 hour and then the synthetic peptide was added to the infusion and continued for another hour at a dose of 20 pmol.kg^-1 h^-1. The procedure was identical for histamine except that the dose of histamine was […]. The ten minute samples were titrated to pH 7.0 by the addition of sodium hydroxide (1 mM) and the acid secretion was expressed as μmol H^+ per 10 minutes.

Assay [1] deals with pentagastrin-stimulated acid secretion. Nature of the assay: inhibition of pentagastrin-stimulated acid secretion in dogs with gastric fistula and Heidenhain pouch. Format: in vivo, dog (beagle). The following applies: for ACID INHIBITION / percentage inhibition of acid: analogue 20 pmol.kg^-1.h^-1, period 110-170 minutes; for order of decreasing antagonist activity: 20 pmol.kg^-1.h^-1; for effect on pentagastrin-stimulated acid secretion: 20 pmol.kg^-1.h^-1, gastric fistula and Heidenhain pouch. The method, then:
as §1
The analogues depicted in Table 6.5 were tested as gastrin antagonists using dogs surgically prepared with gastric fistulae and Heidenhain pouches. The acid secretion was measured at 10 minute intervals during the administration of pentagastrin and each of the analogues.

Assay [2] deals with acid secretion, isolated perfused rat stomach. Nature of the assay: acid output from the isolated, perfused rat stomach, with or without gastrin-17. Also noted: species or system rat (Wistar). The method, then: In brief, stomachs from fasted male Wistar rats (240-270 g) were completely isolated and placed in organ baths filled with Krebs-Ringer buffer. The vascular bed was perfused at a rate of 2 ml.min^-1 with Krebs-Ringer buffer containing 5 mM glucose, 5 mM pyruvate, 40 mg.ml^-1 bovine serum albumin and 10% (v/v) fresh, washed ovine erythrocytes gassed with 96% O2, 4% CO2 by a membrane oxygenator. The gastric lumen was perfused with distilled water (pH 7.0) gassed with O2 (100%). All perfusates and the organ bath were kept at 37° C. After an initial "wash-out" period of 20 minutes, isobutylmethylxanthine (50 μM) was added to the vascular perfusate. After a further 20 minutes, the peptide to be tested was added, giving a final peptide concentration of 10^-9, 10^-7 or 10^-5 M. Five other stomachs were given 520 pM gastrin which was known to produce maximal acid secretion. Furthermore, each peptide was given together with gastrin (520 pM) to evaluate the gastrin inhibitory properties of the peptide. The acid output was determined by titration of the lumenal perfusate to neutrality with dodium hydroxide (1 mM).

In assay [3] the test system is pentagastrin stimulated acid secretion, rat stomach. The assay is described as follows: acid secretion from the ligated rat stomach. Format: in vivo, rat (Sprague-Dawley). The following applies: for ACID SECRETION: basal 26.7 ± 3.21.
Method: In brief fasted male Sprague-Dawley rats (200-250 g) were anaesthetised by the intravenous administration of Sagital (0.1 mg/100 g body weight). The abdominal cavity of each rat was exposed and the stomach was ligated at the pyloric and cardiac sphincters. The test solution (200 μl), containing either saline, pentagastrin (1 μg) or the synthetic peptide in conjunction with pentagastrin (1 μg), was applied directly to the exposed stomach surface, and left for 80 minutes. The stomach was then removed and the contents were washed out with distilled water (15 ml). The washings were titrated to neutrality by the addition of sodium hydroxide (10 mM).
Assay [4] has as its system gastrin / pentagastrin-stimulated acid secretion. To be noted: cited from earlier work.

Entries after “also recorded” stand apart in the source; their conditions may differ. Where a name gives a salt, the structure may show the parent alone. Non-standard residues stand in square brackets, D forms with d. Residues, ends and D or L forms follow the SMILES beside them. *: point of attachment. Boc = CC(C)(C)OC(=O)*; βAla = NCCC(=O)O

This is an account of results in US4997950A, “Novel C-terminal gastrin antagonists” (priority 1989, dated 1991).

As to `CC(C)C[C@H](NC(=O)CCc1c[nH]c2ccccc12)C(=O)N[C@@H](CC(=O)O)C(=O)NCCc1ccccc1` [Peptide V, Indole-3-Propionyl-L-Leucyl-L-Aspartyl-Phenethylamide], in the assay with pepsin secretion (GF (gastric fistula)), the “Inhibition of Pepsin Secretion” value was -3.1 Units/kg and the “percentage inhibition of pepsin secretion” value is 0%. Further, the “Inhibition of Pepsin Secretion” value with pepsin secretion (HP (Heidenhain pouch)) is on record as 2.04 Units/kg. In assay [1] (GF (gastric fistula)), the “ACID INHIBITION” value came to 303.25 mmol H^+ /kg and the “percentage inhibition of acid” value amounted to 29.5%. In assay [1] (HP (Heidenhain pouch)), the “ACID INHIBITION” value came to 11.00 mmol H^+ /kg and the “percentage inhibition of acid” value worked out at 17.2%.

Regarding `CC(C)C[C@H](NC(=O)CCc1ccccc1)C(=O)NCCC(=O)O` [Peptide II, Phenyl-3-Propionyl-Leucyl-β-Alanine], in assay [1], the “order of decreasing antagonist activity” value was “I>III>XIV>XV>II” and the “effect on pentagastrin-stimulated acid secretion” value is recorded as “gastrin antagonists although they are less potent than the parent peptide”. Besides, in assay [1] (GF (gastric fistula)), the “ACID INHIBITION” value is given as 562.22 mmol H^+ /kg and the “percentage inhibition of acid” value came out at 54.7%. For the same compound, in assay [1] (HP (Heidenhain pouch)), the “ACID INHIBITION” value was 32.59 mmol H^+ /kg and the “percentage inhibition of acid” value was found to be 50.92%.

Turning to `CC(C)C[C@H](NC(=O)CCc1ccccc1)C(=O)N(C)CCC(=O)O` [Peptide XV, Phenyl-3-propionyl-L-Leucyl-N-Methyl-β-Alanine], in assay [1], the “order of decreasing antagonist activity” value was “I>III>XIV>XV>II” and the “effect on pentagastrin-stimulated acid secretion” value was “antagonists with significant activity”. For the same compound, in assay [1] (GF (gastric fistula)), the “ACID INHIBITION” value is recorded as 185.32 mmol H^+ /kg and the “percentage inhibition of acid” value was determined as 18%.

Turning to `CC(C)C[C@@H](C(=O)NCCC(=O)O)N(C)C(=O)CCc1ccccc1` [Peptide XIV, Phenyl-3-propionyl-N-methyl-L-Leucyl-β-Alanine], in assay [1], the “order of decreasing antagonist activity” value is “I>III>XIV>XV>II” and the “effect on pentagastrin-stimulated acid secretion” value is on record as “antagonists with significant activity”. In assay [1] (GF (gastric fistula)), the “ACID INHIBITION” value was 256.77 mmol H^+ /kg and the “percentage inhibition of acid” value was determined as 25%.

For the compound `CC(C)C[C@H](NC(=O)CCc1c[nH]c2ccccc12)C(=O)NCCC(=O)O` [Peptide III, Indole-3-Propionyl-L-Leucyl-β-Alanine], in the assay on pepsin secretion (GF (gastric fistula)), the “Inhibition of Pepsin Secretion” value came out at 71.1 Units/kg and the “percentage inhibition of pepsin secretion” value is on record as 62.5%. In addition, in the assay on pepsin secretion (HP (Heidenhain pouch)), the “Inhibition of Pepsin Secretion” value came out at 5.78 Units/kg. Further, in the assay on pepsin secretion, the “effect on pepsin secretion” value is listed as “significant decrease in pepsin secretion from the gastric fistula”. In assay [1], the “order of decreasing antagonist activity” value is “I>III>XIV>XV>II” and the “effect on pentagastrin-stimulated acid secretion” value is on record as “gastrin antagonists although they are less potent than the parent peptide”. For the same compound, in assay [1] (GF (gastric fistula)), the “ACID INHIBITION” value is reported as 125.51 mmol H^+ /kg and the “percentage inhibition of acid” value came out at 12.2%.

Regarding `CC(C)C[C@H](NC(=O)[C@@H](N)Cc1c[nH]c2ccccc12)C(=O)CN[C@@H](CC(=O)O)C(=O)N[C@@H](Cc1ccccc1)C(N)=O` [Peptide XXI, L-Tryptophyl-L-Leucyl-.psi.(COCH2 NH)-L-Aspartyl-L-Phenylalanyl amide dihydrochloride], in assay [2] (10^-9 to 10^-5 M, absence or presence of gastrin-17 520 pM, dihydrochloride), the “effect on acid secretion, isolated perfused stomach” value is reported as “At low concentrations it inhibits basal acid secretion; also recorded: when administered at 10^-5 M or in conjunction with gastrin-17, it acts as a weak agonist; also recorded: partial agonist”. For the same compound, the Acid output in assay [2] (peptide 10^-5 M + G-17 (520 pM), gastrin alone 58.7) amounted to 68.5 μmol H^+ /60 min; in assay [2] (peptide 10^-5 M, basal 8.7) it was 22.4 μmol H^+ /60 min; in assay [2] (peptide 10^-7 M, basal 8.7) it was 1.6 μmol H^+ /60 min; in assay [2] (peptide 10^-9 M, basal 8.7) it was 2.2 μmol H^+ /60 min.

Regarding `CC(C)C[C@H](NC(=O)[C@H](Cc1c[nH]c2ccccc12)NC(=O)CN1CC[C@H](NC(=O)[C@H](C)NC(=O)OC(C)(C)C)C1=O)C(=O)N[C@@H](CC(=O)O)C(=O)N[C@@H](Cc1ccccc1)C(N)=O` [Peptide XXII, t-Butyloxycarbonyl-L-Alanyl-amino-2-oxo-1-pyrrolidineacetyl-L-Tryptophyl-L-Leucyl-L-Aspartyl-L-Phenylalanyl amide], in assay [3] (deduced from γ-lactam peptide acid secretion), the “increase of affinity for the gastrin receptor as compared to pentagastrin” value is “approximately 120 fold”.

Take `CC(C)C[C@H](NC(=O)[C@H](Cc1c[nH]c2ccccc12)NC(=O)OC(C)(C)C)C(=O)N[C@@H](CC(=O)O)C(N)=O` [N-tBOC-Trp-Leu-Asp-NH2] (Boc-Trp-Leu-Asp-NH2): in assay [4], the “antagonist activity” value is “shortest sequence still retaining antagonist activity” and the “concentration at which antagonist properties are exhibited” value was 100 µM. In addition, in assay [4] (joint infusion of peptide (40 μg/kg) and pentagastrin (0.5 μg/kg)), the “reduction of acid secretion” value is reported as 50%.

In assay [2] (gastrin 520 pM alone, basal 8.7), `CSCCC(NC(=O)C(Cc1c[nH]c2ccccc12)NC(=O)CNC(=O)C(Cc1ccc(O)cc1)NC(=O)C(C)NC(=O)C(CCC(=O)O)NC(=O)C(CCC(=O)O)NC(=O)C(CCC(=O)O)NC(=O)[C@H](CCC(=O)O)NC(=O)[C@H](CCC(=O)O)NC(=O)[C@H](CC(C)C)NC(=O)[C@H](Cc1c[nH]c2ccccc12)NC(=O)[C@@H]1CCCN1C(=O)CNC(=O)[C@@H](N)CCC(=O)O)C(=O)NC(CC(=O)O)C(=O)NC(Cc1ccccc1)C(N)=O` (stereo in doubt) [GASTRIN] yielded an Acid output of 58.7 μmol H^+ /60 min.

In the case of `CC(C)C[C@H](NC(=O)[C@H](Cc1c[nH]c2ccccc12)NC(=O)OC(C)(C)C)C(=O)NCCC(=O)O` [Peptide I, t-Butyloxycarbonyl-L-Tryptophyl-L-Leucyl-β-Alanine] (Boc-Trp-Leu-[βAla]-OH), the entries for the “ACID SECRETION” value in assay [3] (peptide 8.2 nmol/kg + pentagastrin 13 nmol/kg) and in assay [3] (peptide alone 8.2 nmol/kg) were 22.7 ± 7.27 μmol/80 min and 28.6 ± 4.21 μmol/80 min, respectively. The “effect on acid secretion, ligated stomach” value in assay [3] (peptide I 8.2 nmol.Kg^-1 with pentagastrin, peptide XXII 80 or 4 pmol.Kg^-1) is listed as “potent antagonist of pentagastrin stimulated acid secretion; also recorded: reduced to a value similar to the basal level”. The “Inhibition of Pepsin Secretion” value in the assay on pepsin secretion (GF (gastric fistula)) is 67.3 Units/kg; with pepsin secretion (HP (Heidenhain pouch)) it was 1.65 Units/kg. The “percentage inhibition of pepsin secretion” value in the assay with pepsin secretion (GF (gastric fistula)) is on record as 59.2%. For the same compound, the “effect on pepsin secretion” value in the assay with pepsin secretion is “significant decrease in pepsin secretion from the gastric fistula”. In addition, in assay [1], the “order of decreasing antagonist activity” value is on record as “I>III>XIV>XV>II”. For the same compound, the “effect on pentagastrin-stimulated acid secretion” value in assay [1] (listed as Boc-Trp-Leu-β-Ala) is given as “retaining potent antagonistic properties”; in assay [1] (listed as Boc-Trp-leu-β-Ala), “most potent antagonist of the series”. The “ACID INHIBITION” value in assay [1] (GF (gastric fistula)) worked out at 617.58 mmol H^+ /kg; in assay [1] (HP (Heidenhain pouch)), 35.70 mmol H^+ /kg. Further, the “percentage inhibition of acid” value in assay [1] (GF (gastric fistula)) is 60%; in assay [1] (HP (Heidenhain pouch)), 55.8%.

Turning to `CSCC[C@H](NC(=O)[C@H](Cc1c[nH]c2ccccc12)NC(=O)CCNC(=O)OC(C)(C)C)C(=O)N[C@@H](CC(=O)O)C(=O)N[C@@H](Cc1ccccc1)C(N)=O` [PENTAGASTRIN, reference compound], the “ACID SECRETION” value in assay [3] (pentagastrin 13 nmol/kg alone) was 60.6 ± 8.63 μmol/80 min.
